# From patent publication US6905841B2, “Enzymatic substrates for detecting Pseudomonas aeruginas” (Biomerieux S.A., priority 1999, dated 2005)
# Read-outs that look alike come from different tables or passages of the source.
# Legend:
# [1] = tested on: β-alanine aminopeptidase; details: Myroïdes spp.; 1 strain tested; read after 22 to 24 hours
# [2] = tested on: β-alanine aminopeptidase; details: Acinetobacter baumannii; 2 strains tested; read after 22 to 24 hours
# [3] = tested on: β-alanine aminopeptidase; details: Salmonella arizonae; 1 strain tested; read after 22 to 24 hours
# [4] = tested on: β-alanine aminopeptidase; details: Pseudomonas mendocina; 1 strain tested; read after 22 to 24 hours
# [5] = tested on: β-alanine aminopeptidase; details: Serratia liquefaciens; 1 strain tested; read after 22 to 24 hours
# [6] = tested on: β-alanine aminopeptidase; details: Burkholderia vesicularis; 1 strain tested; read after 22 to 24 hours
# [7] = tested on: β-alanine aminopeptidase; details: Klebsiella oxytoca; 2 strains tested; read after 22 to 24 hours
# [8] = tested on: β-alanine aminopeptidase; details: Shewanella algae; 1 strain tested; read after 22 to 24 hours
# [9] = tested on: β-alanine aminopeptidase; details: Enterococcus faecalis; 2 strains tested; read after 22 to 24 hours
# [10] = tested on: β-alanine aminopeptidase; assay: APIZYM-type test strips with β-alanyl-β-naphthylamide; assay type: cell-based; details: Bordetella bronchiseptica; five strains
# [11] = tested on: β-alanine aminopeptidase; assay: as above; assay type: cell-based; details: Pasteurella gallinarum; 1 strain
# [12] = tested on: β-alanine aminopeptidase; assay: as above; assay type: cell-based; details: Ralstonia picketti; five strains
# [13] = tested on: β-alanine aminopeptidase; assay: as above; assay type: cell-based; details: Shigella spp.; 4 strains
# [14] = tested on: β-alanine aminopeptidase; assay: as above; assay type: cell-based; details: Pseudomonas luteola; five strains
# [15] = tested on: β-alanine aminopeptidase; assay: as above; assay type: cell-based; details: Proteus morganii; five strains
# [16] = tested on: β-alanine aminopeptidase; assay: as above; assay type: cell-based; details: Moraxella paraphenylpyruvica; 3 strains
# [17] = tested on: β-alanine aminopeptidase; assay: as above; assay type: cell-based; details: Alcaligenes faecalis/odorans; five strains
# [18] = tested on: β-alanine aminopeptidase; assay: as above; assay type: cell-based; details: Pseudomonas aeruginosa; five strains
# [19] = tested on: β-alanine aminopeptidase; assay: as above; assay type: cell-based; details: Pasteurella haemolytica; five strains
# [20] = tested on: β-alanine aminopeptidase; assay: as above; assay type: cell-based; details: Serratia odorifera; five strains
# [21] = tested on: β-alanine aminopeptidase; assay: as above; assay type: cell-based; details: Klebsiella pneumoniae, spp. pneumoniae; five strains
# [22] = tested on: β-alanine aminopeptidase; assay: as above; assay type: cell-based; details: Proteus rettgeri; five strains
# [23] = tested on: β-alanine aminopeptidase; assay: as above; assay type: cell-based; details: Sphingobacterium multivorum; five strains
# [24] = tested on: β-alanine aminopeptidase; assay: as above; assay type: cell-based; details: Pasteurella multocida; five strains
# [25] = tested on: β-alanine aminopeptidase; assay: as above; assay type: cell-based; details: Sphingomonas paucimobilis; five strains
# [26] = tested on: β-alanine aminopeptidase; assay: as above; assay type: cell-based; details: Vibrio parahaemolyticus; 4 strains
# [27] = tested on: β-alanine aminopeptidase; assay: as above; assay type: cell-based; details: Chryseobacterium meningosepticum; five strains
# [28] = tested on: β-alanine aminopeptidase; assay: as above; assay type: cell-based; details: Comamonas testosteroni; five strains
# [29] = tested on: β-alanine aminopeptidase; assay: as above; assay type: cell-based; details: Enterobacter aerogenes; five strains
# [30] = tested on: β-alanine aminopeptidase; assay: as above; assay type: cell-based; details: Achromobacter xylosoxidans, spp. xylosoxidans; five strains
# [31] = tested on: β-alanine aminopeptidase; assay: as above; assay type: cell-based; details: Moraxella osloensis; 18 strains
# [32] = tested on: β-alanine aminopeptidase; assay: as above; assay type: cell-based; details: Edwarsiella tarda; 2 strains
# [33] = tested on: β-alanine aminopeptidase; assay: as above; assay type: cell-based; details: Pseudomonas stutzeri; five strains
# [34] = tested on: β-alanine aminopeptidase; assay: as above; assay type: cell-based; details: Shigella sonnei; five strains
# [35] = tested on: β-alanine aminopeptidase; assay: as above; assay type: cell-based; details: Escherichia coli; five strains
# [36] = tested on: β-alanine aminopeptidase; assay: as above; assay type: cell-based; details: Klebsiella rhinoscleromatis; 3 strains
# [37] = tested on: β-alanine aminopeptidase; assay: as above; assay type: cell-based; details: Salmonella typhi; five strains
# [38] = tested on: β-alanine aminopeptidase; assay: as above; assay type: cell-based; details: Citrobacter freundii; five strains
# [39] = tested on: β-alanine aminopeptidase; assay: as above; assay type: cell-based; details: Pasteurella pneumotropica; 4 strains
# [40] = tested on: β-alanine aminopeptidase; assay: as above; assay type: cell-based; details: Aeromonas hydrophila; five strains
molecule,measurement,setting,value
NCCC(=O)c1c(N)cc(Cl)c(O)c1Cl,Number of negative results,[1],1
same,Number positive results,[1],0
same,Number of negative results,[2],2
same,Number positive results,[2],0
same,Number of negative results,[3],1
same,Number positive results,[3],0
same,Number of negative results,[4],0
same,Number positive results,[4],1
same,Number of negative results,[5],0
same,Number positive results,[5],1
same,Number of negative results,[6],1
same,Number positive results,[6],0
same,Number of negative results,[7],2
same,Number positive results,[7],0
same,Number of negative results,[8],1
same,Number positive results,[8],0
same,Number of negative results,[9],2
same,Number positive results,[9],0
β-alanyl-β-naphthylamide,"β-alanine aminopeptidase activity, result",[10],negative
same,"β-alanine aminopeptidase activity, result",[11],negative
same,"β-alanine aminopeptidase activity, result",[12],negative
same,"β-alanine aminopeptidase activity, result",[13],negative
same,"β-alanine aminopeptidase activity, result",[14],negative
same,"β-alanine aminopeptidase activity, result",[15],negative
same,"β-alanine aminopeptidase activity, result",[16],negative
same,"β-alanine aminopeptidase activity, result",[17],negative
same,"β-alanine aminopeptidase activity, result",[18],positive
same,"β-alanine aminopeptidase activity, result",[19],negative
same,"β-alanine aminopeptidase activity, result",[20],negative
same,"β-alanine aminopeptidase activity, result",[21],negative
same,"β-alanine aminopeptidase activity, result",[22],negative
same,"β-alanine aminopeptidase activity, result",[23],negative
same,"β-alanine aminopeptidase activity, result",[24],negative
same,"β-alanine aminopeptidase activity, result",[25],negative
same,"β-alanine aminopeptidase activity, result",[26],negative
same,"β-alanine aminopeptidase activity, result",[27],negative
same,"β-alanine aminopeptidase activity, result",[28],negative
same,"β-alanine aminopeptidase activity, result",[29],negative
same,"β-alanine aminopeptidase activity, result",[30],negative
same,"β-alanine aminopeptidase activity, result",[31],negative
same,"β-alanine aminopeptidase activity, result",[32],negative
same,"β-alanine aminopeptidase activity, result",[33],negative
same,"β-alanine aminopeptidase activity, result",[34],negative
same,"β-alanine aminopeptidase activity, result",[35],negative
same,"β-alanine aminopeptidase activity, result",[36],negative
same,"β-alanine aminopeptidase activity, result",[37],negative
same,"β-alanine aminopeptidase activity, result",[38],negative
same,"β-alanine aminopeptidase activity, result",[39],negative
same,"β-alanine aminopeptidase activity, result",[40],negative
